The values that follow come from patent US20120142646A1, “Novel Compounds 621” (priority 2006, published 2012).

Molecules are shown by their SMILES. Structures can show the parent of a compound that is named as a salt.

The target in this assay is T1, Adrenergic β2 (Homo sapiens, UniProt P07550).
T1 construct: Adherent H292 cells were removed from tissue culture flasks; endogenous in cells; host or cells: H292 cells
T1 sequence (P07550 whole entry): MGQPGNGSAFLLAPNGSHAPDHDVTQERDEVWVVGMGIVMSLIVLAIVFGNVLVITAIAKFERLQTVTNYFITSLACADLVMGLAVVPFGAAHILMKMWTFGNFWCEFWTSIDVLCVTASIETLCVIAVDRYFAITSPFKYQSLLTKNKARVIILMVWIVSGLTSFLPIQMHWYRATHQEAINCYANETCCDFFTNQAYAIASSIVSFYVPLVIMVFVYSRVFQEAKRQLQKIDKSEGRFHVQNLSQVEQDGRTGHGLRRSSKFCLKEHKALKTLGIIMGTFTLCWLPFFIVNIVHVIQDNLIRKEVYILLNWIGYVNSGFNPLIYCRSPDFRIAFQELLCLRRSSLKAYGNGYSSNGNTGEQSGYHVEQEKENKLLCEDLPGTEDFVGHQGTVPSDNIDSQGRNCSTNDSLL
Put plainly: Adrenergic β2 mediated cAMP production in H292 cells (AlphaScreen cAMP detection). In kind it is cell-based. Also noted: key to β2 Int Act: fraction of formoterol maximum activity (formoterol = 1). The conditions noted are these: Intrinsic Activity as a fraction relative to the maximum activity determined for formoterol. As to the method: Adrenergic β2 Mediated cAMP Production
H292 cells were grown in 225 cm2 flasks incubator at 37° C., 5% CO2 in RPMI medium containing, 10% (v/v) FBS (foetal bovine serum) and 2 mM L-glutamine.
Adherent H292 cells were removed from tissue culture flasks by treatment with Accutase™ cell detachment solution for 15 minutes. Flasks were incubated for 15 minutes in a humidified incubator at 37° C., 5% CO2. Detached cells were re-suspended in RPMI media (containing 10% (v/v) FBS and 2 mM L-glutamine) at 1×10^6 cells per mL. 10000 cells in 100 μL were added to each well of a tissue-culture-treated 96-well plate and the cells incubated overnight in a humidified incubator at 37° C., 5% CO2. The culture media was removed and cells were washed twice with 100 μL assay buffer and replaced with 50 μL assay buffer (HBSS solution containing 10 mM HEPES pH7.4 and 5 mM glucose). Cells were rested at room temperature for 20 minutes after which time 25 μL of rolipram (1.2 mM made up in assay buffer containing 2.4% (v/v) dimethylsulphoxide) was added. Cells were incubated with rolipram for 10 minutes after which time test compounds were added and the cells were incubated for 60 minutes at room temperature. The final rolipram concentration in the assay was 300 μM and final vehicle concentration was 1.6% (v/v) dimethylsulphoxide. The reaction was stopped by removing supernatants, washing once with 100 μL assay buffer and replacing with 50 μL lysis buffer. The cell monolayer was frozen at −80° C. for 30 minutes (or overnight).
AlphaScreen™ cAMP Detection
The concentration of cAMP (cyclic adenosine monophosphate) in the cell lysate was determined using AlphaScreen™ methodology. The frozen cell plate was thawed for 20 minutes on a plate shaker then 10 μL of the cell lysate was transferred to a 96-well white plate. 40 μL of mixed AlphaScreen™ detection beads pre-incubated with biotinylated cAMP, was added to each well and the plate incubated at room temperature for 10 hours in the dark. The AlphaScreen™ signal was measured using an EnVision spectrophotometer (Perkin-Elmer Inc.) with the recommended manufacturer's settings. cAMP concentrations were determined by reference to a calibration curve determined in the same experiment using standard cAMP concentrations. Concentration response curves for agonists were constructed and data was fitted to a four parameter logistic equation to determine both the pEC50 and Intrinsic Activity. Intrinsic Activity was expressed as a fraction relative to the maximum activity determined for formoterol in each experiment.
On the technique in general: Cyclic AMP is a second messenger, typically raised through Gs and lowered through Gi signalling.
`CCCCN(CCNCCc1ccc(O)c2[nH]c(=O)ccc12)C(=O)CCOCCc1ccccc1` [Example 1, N-Butyl-N-(2-(2-(8-hydroxy-2-oxo-1,2-dihydroquinolin-5-yl)ethylamino)ethyl)-3-phenethoxypropanamide hydrochloride]: the “β2 Int Act” value stood at 0.9.

In the case of `O=C(CCOCCc1ccccc1)N(CCNCCc1ccc(O)c2[nH]c(=O)ccc12)C1CCCCC1` [Example 2, N-Cyclohexyl-N-(2-(2-(8-hydroxy-2-oxo-1,2-dihydroquinolin-5-yl)ethylamino)ethyl)-3-phenethoxypropanamide], the “β2 Int Act” value came out at 0.93.

Take `O=C(CCNCCc1cccc(Cl)c1)N(CCNCCc1ccc(O)c2[nH]c(=O)ccc12)C1CCCCCC1` [Example 3, 3-(3-Chlorophenethylamino)-N-cycloheptyl-N-(2-(2-(8-hydroxy-2-oxo-1,2-dihydroquinolin-5-yl)ethylamino)ethyl)propanamide bis(trifluoroacetate)]: the “β2 Int Act” value is 0.82.

Regarding `O=C(CCNCCc1ccc(Cl)cc1)N(CCNCCc1ccc(O)c2[nH]c(=O)ccc12)C1CCCCCC1` [Example 4, 3-(4-Chlorophenethylamino)-N-cycloheptyl-N-(2-(2-(8-hydroxy-2-oxo-1,2-dihydroquinolin-5-yl)ethylamino)ethyl)propanamide bis(trifluoroacetate)], the “β2 Int Act” value is listed as 0.79.

With `O=C(CCNCCc1cccc(F)c1)N(CCNCCc1ccc(O)c2[nH]c(=O)ccc12)C1CCCCCC1` [Example 5, N-Cycloheptyl-3-(3-fluorophenethylamino)-N-(2-(2-(8-hydroxy-2-oxo-1,2-dihydroquinolin-5-yl)ethylamino)ethyl)propanamide bis(trifluoroacetate)], the “β2 Int Act” value is on record as 0.82.

With `O=C(CCNCCc1ccc(F)cc1)N(CCNCCc1ccc(O)c2[nH]c(=O)ccc12)C1CCCCCC1` [Example 6, N-Cycloheptyl-3-(4-fluorophenethylamino)-N-(2-(2-(8-hydroxy-2-oxo-1,2-dihydroquinolin-5-yl)ethylamino)ethyl)propanamide bis(trifluoroacetate)], the “β2 Int Act” value came out at 0.65.

Regarding `O=C(CCNCCc1ccccc1)N(CCNCCc1ccc(O)c2[nH]c(=O)ccc12)C1CCCCCC1` [Example 7, N-Cycloheptyl-N-(2-(2-(8-hydroxy-2-oxo-1,2-dihydroquinolin-5-yl)ethylamino)ethyl)-3-(phenethylamino)propanamide bis(trifluoroacetate)], the “β2 Int Act” value came to 0.76.

Consider `Cc1cccc(CCNCCC(=O)N(CCNCCc2ccc(O)c3[nH]c(=O)ccc23)C2CCCCCC2)c1` [Example 8, N-Cycloheptyl-N-(2-(2-(8-hydroxy-2-oxo-1,2-dihydroquinolin-5-yl)ethylamino)ethyl)-3-(3-methylphenethylamino)propanamide bis(trifluoroacetate)], for which the “β2 Int Act” value came to 0.79.

With `C[C@H](CNCCC(=O)N(CCNCCc1ccc(O)c2[nH]c(=O)ccc12)C1CCCCCC1)c1ccccc1` [Example 9, (S)—N-Cycloheptyl-N-(2-(2-(8-hydroxy-2-oxo-1,2-dihydroquinolin-5-yl)ethylamino)ethyl)-3-(2-phenylpropylamino)propanamide bis(trifluoroacetate)], the “β2 Int Act” value is 0.91.

As to `O=C(CCNCCc1cc(F)cc(F)c1)N(CCNCCc1ccc(O)c2[nH]c(=O)ccc12)C1CCCCCC1` [Example 10, N-Cycloheptyl-3-(3,5-difluorophenethylamino)-N-(2-(2-(8-hydroxy-2-oxo-1,2-dihydroquinolin-5-yl)ethylamino)ethyl)propanamide bis(trifluoroacetate)], the “β2 Int Act” value is 0.85.

As to `CCOc1cccc(CCNCCC(=O)N(CCNCCc2ccc(O)c3[nH]c(=O)ccc23)C2CCCCCC2)c1` [Example 11, N-Cycloheptyl-3-(3-ethoxyphenethylamino)-N-(2-(2-(8-hydroxy-2-oxo-1,2-dihydroquinolin-5-yl)ethylamino)ethyl)propanamide bis(trifluoroacetate)], the “β2 Int Act” value was 0.65.

`O=C(CCNCCc1cccc(-c2ccccc2)c1)N(CCNCCc1ccc(O)c2[nH]c(=O)ccc12)C1CCCCCC1` [Example 12, 3-(2-(Biphenyl-3-yl)ethylamino)-N-cycloheptyl-N-(2-(2-(8-hydroxy-2-oxo-1,2-dihydroquinolin-5-yl)ethylamino)ethyl)propanamide bis(trifluoroacetate)]: the “β2 Int Act” value worked out at 0.67.

As to `O=C(CCNCCc1cccc(Cl)c1)N(CCNCCc1ccc(O)c2[nH]c(=O)ccc12)C1CCCCC1` [Example 13, 3-(3-Chlorophenethylamino)-N-cyclohexyl-N-(2-(2-(8-hydroxy-2-oxo-1,2-dihydroquinolin-5-yl)ethylamino)ethyl)propanamide bis(trifluoroacetate)], the “β2 Int Act” value was 0.86.

In the case of `O=C(CCNCCc1ccc(Cl)cc1)N(CCNCCc1ccc(O)c2[nH]c(=O)ccc12)C1CCCCC1` [Example 14, 3-(4-Chlorophenethylamino)-N-cyclohexyl-N-(2-(2-(8-hydroxy-2-oxo-1,2-dihydroquinolin-5-yl)ethylamino)ethyl)propanamide bis(trifluoroacetate)], the “β2 Int Act” value stood at 0.88.

For `O=C(CCNCCc1cc(F)cc(F)c1)N(CCNCCc1ccc(O)c2[nH]c(=O)ccc12)C1CCCCC1` [Example 15, N-Cyclohexyl-3-(3,5-difluorophenethylamino)-N-(2-(2-(8-hydroxy-2-oxo-1,2-dihydroquinolin-5-yl)ethylamino)ethyl)propanamide bis(trifluoroacetate)], the “β2 Int Act” value came to 0.88.

`O=C(CCNCCc1ccc(F)c(F)c1)N(CCNCCc1ccc(O)c2[nH]c(=O)ccc12)C1CCCCC1` [Example 16, N-Cyclohexyl-3-(3,4-difluorophenethylamino)-N-(2-(2-(8-hydroxy-2-oxo-1,2-dihydroquinolin-5-yl)ethylamino)ethyl)propanamide bis(trifluoroacetate)]: the “β2 Int Act” value is reported as 0.85.

For `O=C(CCNCCc1cc(F)ccc1F)N(CCNCCc1ccc(O)c2[nH]c(=O)ccc12)C1CCCCC1` [Example 17, N-Cyclohexyl-3-(2,5-difluorophenethylamino)-N-(2-(2-(8-hydroxy-2-oxo-1,2-dihydroquinolin-5-yl)ethylamino)ethyl)propanamide bis(trifluoroacetate)], the “β2 Int Act” value is on record as 0.93.

On to `O=C(CCNCCc1cccc(F)c1F)N(CCNCCc1ccc(O)c2[nH]c(=O)ccc12)C1CCCCC1` [Example 18, N-Cyclohexyl-3-(2,3-difluorophenethylamino)-N-(2-(2-(8-hydroxy-2-oxo-1,2-dihydroquinolin-5-yl)ethylamino)ethyl)propanamide bis(trifluoroacetate)], for which the “β2 Int Act” value was found to be 0.95.

For the molecule `O=C(CCNCCc1cccc(F)c1)N(CCNCCc1ccc(O)c2[nH]c(=O)ccc12)C1CCCCC1` [Example 19, N-Cyclohexyl-3-(3-fluorophenethylamino)-N-(2-(2-(8-hydroxy-2-oxo-1,2-dihydroquinolin-5-yl)ethylamino)ethyl)propanamide], the “β2 Int Act” value is 0.87.

Regarding `O=C1Cc2c(CCNCCN(C(=O)CCNCCc3cccc(F)c3)C3CCCCC3)ccc(O)c2N1` [Example 20, N-Cyclohexyl-3-(3-fluorophenethylamino)-N-(2-(2-(7-hydroxy-2-oxoindolin-4-yl)ethylamino)ethyl)propanamide dihydrobromide], the “β2 Int Act” value is reported as 0.78.

Take `O=CNc1cc(CCNCCN(C(=O)CCNCCc2ccccc2)C2CCCCC2)ccc1O` [Example 21, N-Cyclohexyl-N-(2-(3-formamido-4-hydroxyphenethylamino)ethyl)-3-(phenethylamino)propanamide]: the “β2 Int Act” value is given as 0.83.

For the molecule `O=C1COc2c(CCNCCN(C(=O)CCNCCc3ccccc3)C3CCCCC3)ccc(O)c2N1` [Example 23, N-Cyclohexyl-N-(2-(2-(5-hydroxy-3-oxo-3,4-dihydro-2H-benzo[b][1,4]oxazin-8-yl)ethylamino)ethyl)-3-(phenethylamino)propanamide bis(trifluoroacetate)], the “β2 Int Act” value worked out at 0.79.

With `O=C1COc2c(CCNCCN(C(=O)CCNCCc3ccccc3)C3CCCCCC3)ccc(O)c2N1` [Example 24, N-Cycloheptyl-N-(2-(2-(5-hydroxy-3-oxo-3,4-dihydro-2H-benzo[b][1,4]oxazin-8-yl)ethylamino)ethyl)-3-(phenethylamino)propanamide bis(trifluoroacetate)], the “β2 Int Act” value is 0.85.
